Assay [1] concerns PyMT syngeneic breast cancer implant mouse model. In words: PyMT syngeneic breast cancer model primary tumor TIE2 cell accumulation (TIE2 staining). In kind it is in vivo. The following applies: Compound 1 oral twice daily, paclitaxel IV every five days, 21 days.
Description: (§4) Briefly, 1×10^6 cells (dissociated from PyMT tumor fragments) in 0.1 mL total volume were implanted into the fourth mammary fat pad on the left side of female mice (FVB/NJ, JAXWEST:RB05 mice from Jackson Labs). A total of 10 mice were implanted in each group. […] Animals were dosed for 21 days. Body weights and tumor measurements were recorded three times weekly.
At the end of study, tumors were excised and placed in formalin. Formalin-fixed tumor samples were then placed in paraffin blocks. The experimental formalin fixed-paraffin embedded tissue slides were deparaffinized with xylene and hydrated to distilled water through a graduated series of alcohol rinses. Antigenic retrieval was performed using Dako's PT Link Module with a Citrate pH 6 buffer target retrieval solution at 95° C. for 20 minutes. Once the slides cooled down, they were loaded onto a Dako AutostainerPlusLink for immunohistochemical staining at room temperature with both TIE2 and CD31 antibodies. Endogenous peroxidase and alkaline phosphatase activity in the tissues was quenched with a Dual Endogenous Enzyme Block solution (Dako, S2003) for 5 minutes. Non-specific protein binding was blocked with serum free Protein Block (Dako, X0909) for 5 minutes. […] Slides were scored for TIE2 staining using a scale of 0, no visible staining; 1, weak staining; 2, moderate staining; 3 strong staining.
The target of another assay is T1, TIE2 (Homo sapiens, UniProt Q02763).
T1 construct: V5; expressed in transfected cells; host or cells: CHO-K1 (ATCC CCL-61), transient transfection with Lipofectamine LTX
In words: TIE2-transfected CHO K1 phospho-TIE2 Western blot composition washout assay. In kind it is cell-based. The settings on record: incubated 2 hours at 0.1 μM-1 μM prior to being washed out. How it is done:
CHO-K1 cells (catalog #CCL-61) were obtained from the American Type Culture Collection (ATCC, Manassas, Va.). Briefly, cells were grown in F12K medium supplemented with 10% characterized fetal bovine serum (Invitrogen, Carlsbad, Calif.), 100 units/mL penicillin G, 100 μg/ml streptomycin, and 0.29 mg/mL L-glutamine (Invitrogen, Carlsbad, Calif.) at 37 degrees Celsius, 5% CO2, and 95% humidity. Cells were allowed to expand until reaching 70-95% confluence at which point they were subcultured or harvested for assay use.
TIE2-Transfected CHO K1 Phospho-TIE2 Western Blot Composition Washout Assay
CHO K1 cells (1×10^5 cells/well) were added to a 24-well tissue-culture treated plate in 1 mL of RPMI1640 medium supplemented with 10% characterized fetal bovine serum and 1× non-essential amino acids (Invitrogen, Carlsbad, Calif.). Cells were then incubated overnight at 37 degrees Celsius, 5% CO2, and 95% humidity. Medium was aspirated, and 0.5 mL of medium was added to each well. […] Fluorescence was detected using a Storm 840 phosphorimager (GE Healthcare, Piscataway, N.J.) in fluorescence mode. […] The 160 kDa phospho-TIE2 and total TIE2 bands were quantified using ImageQuant software (GE Healthcare, Piscataway, N.J.). […]
In general terms: A western blot detects proteins with antibodies after separation by electrophoresis.

The test system of assay [2] is PyMT syngeneic breast cancer implant mouse model. The experiment in a line: PyMT syngeneic breast cancer model primary tumor macrophage accumulation (F4/80 staining). The assay is classed as in vivo. The following applies: Compound 1 oral twice daily, paclitaxel IV every five days, 21 days.
Description: PyMT Syngeneic Breast Cancer Model Primary Tumor Macrophage Accumulation
as §4
At the end of study, tumors were excised and placed in formalin. Formalin-fixed tumor samples were then placed in paraffin blocks. Formalin fixed-paraffin embedded tissue slides were deparaffinized with xylene and hydrated to distilled water through a graduated series of alcohol rinses. Antigenic retrieval was performed using Dako's PT Link Module with a Tris/EDTA buffer target retrieval solution at 95° C. for 20 minutes. Once the slides cooled down, they were loaded onto a Dako AutostainerPlusLink for immunohistochemical staining at room temperature with F4/80 and CD31 antibodies, to stain for macrophages and endothelial cells, respectively. Endogenous peroxidase and alkaline phosphatase activity in the tissues was quenched with a Dual Endogenous Enzyme Block solution (Dako, S2003) for 5 minutes. […] Slides were scored for F4/80 staining using a scale of 0, no visible staining; 1, weak staining; 2, moderate staining; 3 strong staining.
The test system is the same in assay [3]. The experiment in a line: PyMT syngeneic breast cancer model primary tumor growth. In kind it is in vivo. The following applies: Compound 1 oral twice daily, paclitaxel IV every five days, 21 days. The protocol:
PyMT Syngeneic Breast Cancer Model Primary Tumor Growth
Briefly, 1×10^6 cells (dissociated from PyMT tumor fragments) in 0.1 mL total volume were implanted into the fourth mammary fat pad on the left side of female mice (FVB/NJ, JAXWEST:RB05 mice from Jackson Labs). A total of 10 mice were implanted in each group. Molecular Imaging, Inc.'s Animal Care and Use Committee approved all the experimental protocols and conducted experiments in compliance with all the laws, regulations and guidelines of the National Institutes of Health (NIH). […] Animals were dosed for 21 days. Body weights and tumor measurements were recorded three times weekly. Tumor burden (mg) was estimated from caliper measurements by the formula for the volume of a prolate ellipsoid assuming unit density as: Tumor burden (mg)=(L×W^2)/2, where L and W are the respective orthogonal tumor length and width measurements (mm).

The test system of assay [4] is HMVEC capillary tube formation. The experiment in a line: HMVEC capillary tube formation assay. In kind it is cell-based. The settings on record: Homo sapiens, ANG1-stimulated, 18 hours, read-out: IC50 value for inhibition of ANG1-stimulated HMVEC capillary tube formation. The protocol: HMVEC (Human microvascular endothelial cells; Catalog #PCS-110-010) cells were obtained from the American Type Culture Collection (ATCC, Manassas, Va.). Briefly, cells were grown in EGM-2 MV (Lonza, Walkersville, Md.) at 37 degrees Celsius, 5% CO2, and 95% humidity. Cells were allowed to expand until reaching 90-95% saturation at which point they were subcultured or harvested for assay use.
HMVEC Capillary Tube Formation Assay
HMVEC cells (1.5×10^4 cells/well) mixed with test composition or DMSO control and the appropriate growth factor (ANG1 or ANG2) or control were added to a 96-well tissue-culture treated plate coated with growth-factor reduced Matrigel in 0.1 mL of EBM-2 basal medium (Lonza, Walkersville, Md.). Cells were then incubated for 18 hours at 37 degrees Celsius, 5% CO2, and 95% humidity. Media was then gently aspirated and wells were gently washed with 0.1 mL EBM-2 basal medium. Media was again aspirated and 1 μM Calcein AM solution (Invitrogen, Carlsbad, Calif.) in basal medium was added to each well to fluorescently label live cells. Cells were then incubated for 30 minutes at 37 degrees Celsius, 5% CO2, and 95% humidity. Media was aspirated and wells were gently washed with phosphate-buffered saline twice. […] Data was analyzed using Prism software (GraphPad Software, San Diego, Calif.) to calculate IC50 values.

The test system of assay [5] is PyMT syngeneic breast cancer implant mouse model. The experiment in a line: PyMT syngeneic breast cancer model survival evaluation. In kind it is in vivo. The following applies: Compound 1 oral once or twice weekly, eribulin at 0.1 mg/kg IV three times weekly; tumors resected three days after treatment began. The protocol:
PyMT Syngeneic Breast Cancer Model Survival Evaluation
Briefly, 1×10^6 cells (dissociated from PyMT tumor fragments and stored frozen in cell-freezing medium) in 0.1 mL total volume were implanted into the fourth mammary fat pad on the left side of female mice (FVB/NJ, JAXWEST:RB05 mice from Jackson Labs). A total of ten mice were implanted in each group. Molecular Imaging, Inc.'s Animal Care and Use Committee approved all the experimental protocols and conducted experiments in compliance with all the laws, regulations and guidelines of the National Institutes of Health (NIH). […] Tumors were then resected three days after treatment began. Animals were then dosed for the duration of the survival experiment. Body weights and tumor measurements were recorded three times weekly.

For assay [6] the test system is unchanged. In words: PyMT syngeneic breast cancer model lung metastasis evaluation, Compound 1 dosed intermittently with eribulin. The following applies: Compound 1 oral twice weekly, eribulin IV three times weekly, 12 days. The assay is classed as in vivo. The protocol: (§1) PyMT Syngeneic Breast Cancer Model Lung Metastasis Evaluation
(§2) Briefly, 1×10^6 cells (dissociated from PyMT tumor fragments and stored frozen in cell-freezing medium) in 0.1 mL total volume were implanted into the fourth mammary fat pad on the left side of female mice (FVB/NJ, JAXWEST:RB05 mice from Jackson Labs). A total of three mice were implanted in each group. Molecular Imaging, Inc.'s Animal Care and Use Committee approved all the experimental protocols and conducted experiments in compliance with all the laws, regulations and guidelines of the National Institutes of Health (NIH). […] Animals were dosed for 12 days. Body weights and tumor measurements were recorded three times weekly.
(§3) At the end of study, lung tissues were excised and placed in formalin. Formalin-fixed lung samples were then placed in paraffin blocks. Each lung block had three slides with two levels per slide cut and stained with Hematoxylin and Eosin. Metastatic lung nodules were counted via microscopy.

For assay [7] the test system is unchanged. In words: PyMT syngeneic breast cancer model lung metastasis evaluation, Compound 1 dosed intermittently with paclitaxel. In kind it is in vivo. The settings on record: Compound 1 oral twice weekly, paclitaxel IV every five days, 12 days. The protocol: as §1, §2, §3

The values that follow come from patent publication US9457019B2, “Methods for inhibiting tie-2 kinase useful in the treatment of cancer” (Deciphera Pharmaceuticals, LLC, priority 2013, dated 2016).

By IC50 is commonly meant the midpoint of a concentration-inhibition curve.

Bounds are passed on as bounds.

T1 sequence (Q02763 23-1124): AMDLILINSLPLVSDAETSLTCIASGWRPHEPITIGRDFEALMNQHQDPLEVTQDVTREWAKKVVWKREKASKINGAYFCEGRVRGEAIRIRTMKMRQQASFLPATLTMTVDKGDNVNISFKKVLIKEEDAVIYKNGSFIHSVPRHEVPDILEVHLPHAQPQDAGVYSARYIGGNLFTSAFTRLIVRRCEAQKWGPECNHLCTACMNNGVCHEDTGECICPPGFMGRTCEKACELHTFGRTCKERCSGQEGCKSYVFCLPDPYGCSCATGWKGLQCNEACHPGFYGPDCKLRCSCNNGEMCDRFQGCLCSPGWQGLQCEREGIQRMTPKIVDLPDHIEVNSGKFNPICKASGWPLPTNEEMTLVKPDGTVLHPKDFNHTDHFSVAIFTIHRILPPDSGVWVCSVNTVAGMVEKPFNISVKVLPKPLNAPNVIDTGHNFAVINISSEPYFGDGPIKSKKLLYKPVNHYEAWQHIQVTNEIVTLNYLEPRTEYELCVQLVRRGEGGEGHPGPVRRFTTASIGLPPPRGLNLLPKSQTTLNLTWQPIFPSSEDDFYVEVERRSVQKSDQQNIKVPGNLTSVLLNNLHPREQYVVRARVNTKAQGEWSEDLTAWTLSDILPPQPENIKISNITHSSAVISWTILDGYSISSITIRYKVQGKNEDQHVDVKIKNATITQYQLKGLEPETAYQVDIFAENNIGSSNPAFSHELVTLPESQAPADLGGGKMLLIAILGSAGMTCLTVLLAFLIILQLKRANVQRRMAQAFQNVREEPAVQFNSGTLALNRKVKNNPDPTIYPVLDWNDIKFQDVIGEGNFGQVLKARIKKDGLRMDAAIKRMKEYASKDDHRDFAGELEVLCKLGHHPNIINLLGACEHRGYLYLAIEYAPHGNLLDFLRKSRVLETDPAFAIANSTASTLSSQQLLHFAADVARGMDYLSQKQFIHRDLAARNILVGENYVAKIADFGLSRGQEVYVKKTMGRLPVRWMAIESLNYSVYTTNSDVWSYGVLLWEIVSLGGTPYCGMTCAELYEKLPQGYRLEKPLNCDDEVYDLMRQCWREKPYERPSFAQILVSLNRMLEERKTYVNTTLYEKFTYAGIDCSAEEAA

Consider `CNC(=O)c1cc(Oc2ccc(NC(=O)Nc3cc(C(C)(C)C)nn3-c3ccc4ncccc4c3)c(F)c2)ccn1.Cc1ccc(S(=O)(=O)O)cc1` [Compound 1, 1-(3-tert-butyl-1-(quinolin-6-yl)-1H-pyrazol-5-yl)-3-(2-fluoro-4-(2-(methylcarbamoyl)pyridin-4-yloxy)phenyl)urea para-toluene sulfonic acid salt], for which the “TIE2-expressing cell accumulation at the primary tumor (TIE2 staining), FIG. 3” value in assay [1] is listed as “decrease in TIE2-expressing cell accumulation”. Moreover, the “duration of >50% inhibition of phospho-TIE2 levels after washout” value on TIE2 is more than 24 h. In addition, the “inhibition of phospho-TIE2 levels after washout” value on TIE2 (maintained for >24 hours) is reported as more than 50%. Also, the “macrophage accumulation at the primary tumor (F4/80 staining), FIG. 2” value in assay [2] is reported as “decrease in macrophage accumulation”. Besides, the “primary tumor growth (tumor burden), FIG. 1” value in assay [3] is on record as “tumor growth inhibition”. In assay [4], the IC50 was found to be 6.9 nM.

In the case of `C=C1C[C@@H]2CC[C@@]34C[C@H]5O[C@H]6[C@@H](O3)[C@H]3O[C@H](CC[C@@H]3O[C@H]6[C@H]5O4)CC(=O)C[C@@H]3[C@@H](OC)[C@@H](C[C@H](O)CN)O[C@H]3C[C@H]3O[C@@H](CC[C@@H]1O2)C[C@@H](C)C3=C` [eribulin], in assay [5], the “survival, FIG. 7” value is recorded as “no increase in survival”. The “lung metastasis (metastatic lung nodules), FIG. 6” value in assay [6] is on record as “decrease (or increase at low dose) in lung metastasis”.

With `CC(=O)O[C@H]1C(=O)[C@@]2(C)[C@H]([C@H](OC(=O)c3ccccc3)[C@]3(O)C[C@H](OC(=O)[C@H](O)[C@@H](NC(=O)c4ccccc4)c4ccccc4)C(C)=C1C3(C)C)[C@]1(OC(C)=O)CO[C@@H]1C[C@@H]2O` [paclitaxel, reference compound], the “TIE2-expressing cell accumulation at the primary tumor (TIE2 staining), FIG. 3” value in assay [1] is “did not decrease TIE2-expressing cell accumulation”. Besides, the “macrophage accumulation at the primary tumor (F4/80 staining), FIG. 2” value in assay [2] is given as “did not decrease macrophage accumulation”. For the same molecule, the “lung metastasis (metastatic lung nodules), FIG. 5” value in assay [7] was “decrease in lung metastasis”. Moreover, the “primary tumor growth (tumor burden), FIG. 1” value in assay [3] is recorded as “tumor growth inhibition”.
